In patent publication US20170165240A1, “NEW STRATEGIES FOR TREATING MELANOMA” (Université Libre de Bruxelles, priority 2014, published 2017):
Entries after “also recorded” stand apart in the source; their conditions may differ. Read-outs that look alike come from different tables or passages of the source.

What was measured:
melanoma = settings: ipilimumab only group, 9 of 15 responders; cited from earlier work
MM074 melanoma cell line [1] = assay: Apoptosis determination (annexin V), MM074; format: cell-based, human
MM043 melanoma cell line [2] = assay: Apoptosis determination (annexin V), MM043; format: cell-based, human
[3] = tested on: key proteins of MAPK and p53/PI3K/AKT pathways; assay: Western blot analysis, MM074 cells; format: cell-based, human; settings: MM074, Western blotting
Method: (§1) Cells were plated in Petri dishes (3×10^6 cells/dish) in culture medium. […] Then, cells were exposed or not to effectors for 30 minutes or 24 hours. Cells were lysed using a detergent cocktail (M-PER Mammalian Extraction Buffer) supplemented with protease inhibitors (Halt Protease Inhibitor Cocktail) and phosphatase inhibitors (Halt Phosphatase Inhibitor Cocktail) (all from Pierce, Rockford, Ill., USA). Protein concentrations were determined by the BCA Protein Assay (Pierce) using bovine serum albumin as the standard. Equal amounts of extracted proteins (35 μg) were subjected to 10 or 12% SDS-PAGE and electrotransferred onto nitrocellulose membranes using iBlot® Dry Blotting System (Invitrogen, Life Technologies, Gent, Belgium). Immunodetections were performed using antibodies raised against ^V600EBRAF (VE1, 1/1000) (from Spring Bioscience, Pleasanton, Calif., USA), pBRAF (Ser 445) (1/1000), pCRAF (Ser 338) (1/1000), CRAF (1/1000), p110α (C73F8, 1/1000), PTEN (138G6, 1/1000), pAKT (Ser 473) (D9E, 1/500), AKT (40D4, 1/1000), p21 (12D1, 1/1000) and p53 Ser15 (16G8) (all from Cell Signaling Technology, Danvers, Mass., USA), BRAF (F-7, 1/200), pERK (Tyr 204) (E-4, 1/1000), ERK2 (C-14, 1/2000), p53 (DO-1, 1/200) and MDM2 (SMP14, 1/200) (all from Santa Cruz Biotechnology, Santa Cruz, Calif., USA), and MDM4 (8C6, 1/1000), […]-actin (C4, 1/5000) (from Millipore, Temecula, Calif., USA). Peroxidase-labeled anti-rabbit IgG antibody (1/5000) or peroxidase-labeled anti-mouse IgG antibody (1/5000) (both from Amersham Pharmacia Biotech, Roosendaal, The Netherlands) were used as secondary reagents to detect corresponding primary antibodies. […] Immunostaining signals were digitalized with a PC-driven LAS-3000 CCD camera (Fujifilm, Tokyo, Japan), using a software specifically designed for image acquisition (Image Reader, Raytest®, Straubenhardt, Germany). Immunoreactive band intensities were quantified using the software AIDA® Image Analyser 3.45 (Raytest®).

[4] = tested on: key proteins of MAPK and p53/PI3K/AKT pathways; assay: Western blot analysis, MM043 cells; format: cell-based, human; settings: MM043, Western blotting
Method: as §1

[5] = tested on: MM074-R melanoma cell line; settings: 10% growth reduction
MM074 melanoma cell line [6] = assay: Cell proliferation, crystal violet assay, MM074; settings: for IC10: 10% growth reduction
MM043 melanoma cell line [7] = assay: Cell proliferation, crystal violet assay, MM043; settings: for IC10 / CI (combination index): MM043; for IC10: 10% growth reduction; for CI (combination index): PI3K inhibitor at IC10 in combination with vemurafenib
MM070 melanoma cell line = assay: Cell proliferation, crystal violet assay, MM070; format: cell-based; settings: Homo sapiens, V600E, read-out: IC50 (μM) vemurafenib
Method: (§2) Cells were distained under running tap water and subsequently lysed with 0.2% Triton X-100 for 90 minutes (v/v in water).
(§3) The IC50 and IC10 values represent the inhibitory concentrations producing, respectively, 50% and 10% growth reduction and were calculated from dose response curves using GraphPad Prism software (GraphPad Software, La Jolla, Calif., USA).

MM034 melanoma cell line = assay: Cell proliferation, crystal violet assay, MM034; format: cell-based; settings: Homo sapiens, V600E, read-out: IC50 (μM) vemurafenib
Method: as §2, §3

MM050 melanoma cell line = assay: Cell proliferation, crystal violet assay, MM050; format: cell-based; settings: Homo sapiens, V600E, read-out: IC50 (μM) vemurafenib
Method: as §2, §3

MM133 melanoma cell line = assay: Cell proliferation, crystal violet assay, MM133; format: cell-based; settings: Homo sapiens, V600K, read-out: IC50 (μM) vemurafenib
Method: as §2, §3
(§4) CI values between 0.9 and 1.1 indicates an additive effect; values between 0.7 and 0.9, a moderate synergism; values lower than 0.7, a strong synergism; and antagonism is represented by CI values higher than 1.1.

MM032 melanoma cell line = assay: Cell proliferation, crystal violet assay, MM032; format: cell-based; settings: Homo sapiens, V600E, read-out: IC50 (μM) vemurafenib
Method: as §2, §3, §4

MM029 melanoma cell line = assay: Cell proliferation, crystal violet assay, MM029; format: cell-based; settings: Homo sapiens, V600K, read-out: IC50 (μM) vemurafenib
Method: as §2, §3, §4

MM054 melanoma cell line = assay: Cell proliferation, crystal violet assay, MM054; format: cell-based; settings: Homo sapiens, V600E, read-out: IC50 (μM) vemurafenib
Method: as §2, §3, §4

[8] = tested on: ERK and AKT phosphorylation; assay: Western blot, ERK and AKT phosphorylation in panel of vemurafenib-resistant lines; format: cell-based, human
Method: Representative Western blots illustrating the evolution of (A) ERK and (B) AKT phosphorylation in melanoma cells exposed to increasing concentrations of vemurafenib (0.1, 1 and 10 μM) for 24 hours. Ratio of phosphorylated protein over total protein were calculated from densitometry evaluation.
Cells were plated in Petri dishes (3×10^6 cells/dish) in culture medium. […] Then, cells were exposed or not to effectors for 30 minutes or 24 hours. Cells were lysed using a detergent cocktail (M-PER Mammalian Extraction Buffer) supplemented with protease inhibitors (Halt Protease Inhibitor Cocktail) and phosphatase inhibitors (Halt Phosphatase Inhibitor Cocktail) (all from Pierce, Rockford, Ill., USA). Protein concentrations were determined by the BCA Protein Assay (Pierce) using bovine serum albumin as the standard. Equal amounts of extracted proteins (35 μg) were subjected to 10 or 12% SDS-PAGE and electrotransferred onto nitrocellulose membranes using iBlot® Dry Blotting System (Invitrogen, Life Technologies, Gent, Belgium). […] Immunostaining signals were digitalized with a PC-driven LAS-3000 CCD camera (Fujifilm, Tokyo, Japan), using a software specifically designed for image acquisition (Image Reader, Raytest®, Straubenhardt, Germany). Immunoreactive band intensities were quantified using the software AIDA® Image Analyser 3.45 (Raytest®).

MM074 xenografts = assay: Human melanoma xenografts, MM074; format: in vivo, mice
Method: (§5) Mice were injected subcutaneously (right and left flank) with 5×10^6 MM074 (vemurafenib sensitive), MM043 (with intrinsic resistance) or MM074-R cells (with acquired resistance) in 200 μl of 50% Matrigel (from Trevigen, Gaithersburg, Md.) in saline. When tumors reached 200 mm^3, mice were randomized into groups of 8 and daily intraperitoneally injected with vehicle, 45 mg/kg vemurafenib, 50 mg/kg PRIMA-1^Met or vemurafenib plus PRIMA-1^Met. […] Tumor volumes were calculated using the formula (L×W×W)/2 (Ji Z et al., 2013, Clin Cancer Res Off J Am Assoc Cancer Res. 19(16):4383-4391), in which L is the length and W is the width as measured with a vernier calliper.
(§6) The sensitive melanoma cells (MM074) xenografts were used as control. After subcutaneous cell injection, tumor growth was monitored to reach volumes of about 200 mm^3.

MM043 xenografts = assay: Human melanoma xenografts, MM043; format: in vivo, mice
Method: as §5, §6

[9] = tested on: MM074-R melanoma cell line; assay: cells; settings: Homo sapiens, read-out: IC50 (μM) vemurafenib
[10] = tested on: panel of V600E/K BRAF melanoma cell lines; assay: Cell proliferation and apoptosis in panel of V600E/K BRAF melanoma cell lines; settings: Homo sapiens
[11] = tested on: key proteins of MAPK and p53/PI3K/AKT pathways; assay: Western blot analysis, MM074-R cells; format: cell-based, human; settings: Western blotting, 50 and 75 μM for 24 hours
Method: as §1

[12] = Homo sapiens, read-out: IC50 (μM) vemurafenib

ipilimumab: an antibody raised against CTLA-4 molecule on T-cells
responders who maintained an objective response for at least 2 years (melanoma): 60%

COc1ccc(-c2cc3c(C)nc(N)nc3n([C@H]3CC[C@H](OCCO)CC3)c2=O)cn1 [PF-04691502]
apoptosis (annexin V-positive cells) (MM074 melanoma cell line [1]; MM074, PI3K inhibitor at IC10 in combination with vemurafenib, 2 days): increased | apoptosis (annexin V-positive cells) (MM043 melanoma cell line [2]; MM043, PI3K inhibitor at IC10 in combination with vemurafenib, 2 days): significant increase in apoptosis | AKT phosphorylation [3]: inhibited | AKT phosphorylation [4]: inhibited | IC10 [5]: 0.1 µM | IC10 (MM074 melanoma cell line [6]; MM074): 0.1 µM | cell proliferation (MM074 melanoma cell line [6]; MM074, PI3K inhibitor at IC10 in combination with increasing concentrations of vemurafenib): not significantly affected | IC10 (MM043 melanoma cell line [7]): 0.1 µM | CI (combination index) (MM043 melanoma cell line [7]): 0.64

O=c1cc(N2CCOCC2)oc2c(-c3ccccc3)cccc12 [LY294002]
IC10 [5]: 5 µM | IC10 (MM074 melanoma cell line [6]; MM074): 5 µM | IC10 (MM043 melanoma cell line [7]): 5 µM | CI (combination index) (MM043 melanoma cell line [7]): 0.56

CCCS(=O)(=O)Nc1ccc(F)c(C(=O)c2c[nH]c3ncc(-c4ccc(Cl)cc4)cc23)c1F [vemurafenib, N-(3-{[5-(4-chlorophenyl)-1H-pyrrolo[2,3-b]pyridin-3-yl]carbonyl}-2,4-difluorophenyl)propane-1-sulfonamide]
IC50 (MM070 melanoma cell line): 0.05 µM | IC50 (MM034 melanoma cell line): 0.1 µM | IC50 (MM050 melanoma cell line): 0.1 µM | IC50 (MM133 melanoma cell line): 2 µM | IC50 (MM032 melanoma cell line): 2 µM | IC50 (MM029 melanoma cell line): 30 µM | IC50 (MM054 melanoma cell line): 40 µM | apoptosis (annexin V-positive cells) (MM074 melanoma cell line [1]; MM074, 2 days): induces apoptosis | apoptosis (annexin V-positive cells) (MM043 melanoma cell line [2]; MM043, 2 days): no apoptosis is detected | AKT phosphorylation [3]: strongly inhibited | PTEN expression [3]: concentration-dependent increase of PTEN expression | ERK phosphorylation (pERK) ([3]; 24 hours): similarly inhibited | AKT phosphorylation [4]: neither AKT phosphorylation nor PTEN expression were affected | PTEN expression [4]: neither AKT phosphorylation nor PTEN expression were affected | ERK phosphorylation (pERK) ([4]; 24 hours): similarly inhibited | pERK ([8]; all resistant lines, 24 hours): similarly inhibited in a concentration-dependent manner | pAKT ([8]; resistant lines MM032, MM043 and MM133, 24 hours): unaffected in three out of five resistant lines | average tumor volume (MM074 xenografts; 28 days, 45 mg/kg daily intraperitoneally): ~190 mm3 | tumor growth (MM074 xenografts; as of day 4 after starting treatment): inhibited tumor growth | tumor growth (MM043 xenografts; 45 mg/kg vemurafenib and/or 50 mg/kg PRIMA-1^Met daily IP): did not significantly affected tumor growth | mean tumor volume (MM043 xenografts; after 28 days of treatment): ~1130 mm^3 | IC50 [9]: 20 µM | IC50 (MM074 melanoma cell line [6]; [12]): 0.1 µM | IC50 (MM043 melanoma cell line [7]; [12]): 20 µM | IC50 ([10]; read-out: IC50, cell lines found to be resistant): > 10 µM | IC50 ([10]; read-out: IC50, cell lines found to be sensitive): ≤ 2 µM

COCC1(CO)C(=O)C2CCN1CC2 (centres unmarked) [PRIMA-1^Met, 2-hydroxymethyl-2-methoxymethylazabicyclo[2.2.2]octan-3-one]
AKT phosphorylation [3]: inhibition of p110α expression and AKT phosphorylation | PTEN expression [3]: increase in PTEN levels | p110α expression [3]: inhibition of p110α expression and AKT phosphorylation | AKT phosphorylation [4]: inhibited AKT phosphorylation; also recorded: inhibition of p110α expression and AKT phosphorylation | PTEN expression [4]: stimulated PTEN expression; also recorded: increase in PTEN levels | p53 expression / p53 pathway [4]: restored p53 expression; also recorded: activation of the p53 pathway | p110α expression [4]: inhibition of p110α expression and AKT phosphorylation | AKT phosphorylation [11]: decrease of p110α expression and AKT phosphorylation | p21 and PTEN levels [11]: upregulation of p21 and PTEN levels | p53 expression and phosphorylation [11]: dose-dependent increase of p53 expression and phosphorylation | p110α expression [11]: decrease of p110α expression and AKT phosphorylation | mean tumor volume (MM043 xenografts; after 20 days of treatment): 1080 mm^3 | IC10 [5]: 40 µM
